Laboratory results reported in patent publication US8785455B2, “Polymorph of linagliptin benzoate” (Sandoz AG, priority 2011, dated 2014).

Tests used:
[1] = dynamic water vapor sorption/desorption (moisture sorption isotherm); assay type: physicochemical; conditions: for hygroscopicity (in words): comparison of moisture sorption isotherms, FIGS. 4 and 5; for water uptake: from about 3 to 90% relative humidity at about 25° C., w % = weight % of water in relation to total weight
Protocol: The water uptake of the crystalline forms of Linagliptin benzoate was determined by dynamic water vapor sorption/desorption. Therefore both forms were conditioned at about 28% relative humidity (RH) and the initial water content was determined by Karl-Fischer-titration. Then a moisture sorption experiment was performed with an SPSx-1μ moisture sorption analyzer (Projekt Messtechnik, Ulm) by stepwise increasing the RH in the range of about 3% RH to about 90% RH within approximately 2.5 days at 25±0.1° C.

[2] = stability upon storage at conditions of high relative humidity; assay type: physicochemical

| Compound | hygroscopicity (in words) [1] | water uptake [1] | stability upon storage [2] | hygroscopicity (in words) ([1]; listed as crystalline form of Linagliptin benzoate of WO2010/072776 A1) |
| --- | --- | --- | --- | --- |
| CC#CCn1c(N2CCC[C@@H](N)C2)nc2c1c(=O)n(Cc1nc(C)c3ccccc3n1)c(=O)n2C [Linagliptin benzoate form II, Linagliptin benzoate] | significantly less hygroscopic than crystalline Linagliptin benzoate of WO2010/072776 A1 | about 2.0 w % | more stable than form I |  |
| CC#CCn1c(N2CCC[C@@H](N)C2)nc2c1c(=O)n(Cc1nc(C)c3ccccc3n1)c(=O)n2C [crystalline Linagliptin benzoate of WO2010/072776 A1] [reference compound] |  | about 9.5 w % |  | quite hygroscopic |
